Patent publication US20080207594A1, “Use of Gsk-3 Inhibitors for Preventing and Treating Pancreatic Autoimmune Disorders” (Davelogen Aktiengesellschaft, priority 2005, published 2008)

Key:
human Pax4 promoter [1] = experiment: Pax4 reporter gene assay in INS-1-cl.-3.5 cells; type: cell-based, rat; conditions: INS-1-cl.-3.5 or INS-1-cl.-9 cells; FIG. 18, FIG. 19
Experimental: (§1) INS-1E cell lines were grown as described below. The Pax-4-reporter gene construct (referred to as pKS-Pax-4-LUC), a cDNA construct containing a firefly luciferase reporter (LUC) gene under the transcriptional control of human Pax4 promoter sequences and the nearly complete human Pax4 gene locus (cf. FIG. 5A) was cloned into the plasmid pBluescript ks.
(§2) Adherent INS-1E cells were transfected using Lipofectamine 2000 (Invitrogen) according to the protocol provided by the supplier. The transfected cells were treated with media containing 400 μg/ml G418 Sulfate (e.g. Geneticin from Gibco; Cat. No. 11811-098), a selection agent for eukaryotic cells, 24 to 48 hours after the transfection. To establish independent stable cell lines, cell colonies which occurred 2 to 6 weeks after the transfection were individually transferred to new culture dishes and then propagated like untransfected INS-1E cells, but in the presence of G418 Sulfate.
(§3) For the identification and/or characterization of beta-cell mitogens a Pax4 reporter gene assay has been established. […]
(§4) Luciferase activity that can be quantified using appropriate imaging systems reflects the activation status of the human Pax4 promoter. […]

Pax4 [2] = experiment: Pax4 expression in human islets; type: cell-based; conditions: 5 μM, 48 h
Experimental: FIG. 2 illustrates relative Pax4 expression in untreated human islets and human islets, treated with 5 μM Kenpaullone (KP) for 48 h.
Further, human islets were treated with 5 μM Kenpaullone for 48 h. The treated islets show a 10-15 fold expression of Pax4 compared to untreated pancreatic islets.

Pax4 [3] = experiment: Pax4 expression in small intestine and colon
minimal CMV promotor = experiment: Counter screen assay (Capan-1-pCMVmin-LUC-54 cells); type: cell-based, human; conditions: compound 10 μM with Trichostatin A 0.75 μM, 30 hour
Experimental: (§5) Generation of stable Cell Lines and Drug Selections Capan-1 human pancreatic duct cell line ([HBT-79], purchased from American Type Culture Collection (ATCC), referred to as Capan-1 herein) were grown in high glucose DMEM [Gibco Cat. No. 61965-026] containing 10% FBS [Gibco Cat. No. 10270-106] at 37° C. under an atmosphere of 5% CO2. The Pax-4-reporter gene construct (referred to as pKS-Pax-4-LUC)— a cDNA construct containing a luciferase reporter (LUC) gene under the control of the Pax4 promoter with the complete Pax4 gene locus were cloned into the plasmid pBlueskript ks (FIG. 5). The Minimal CMV reporter gene construct (referred to as pCMVmin-LUC): a fire fly luciferase reporter gene (LUC) under the control of a minimal CMV promotor (56 bp) was cloned into pcDNA3.1 plasmid (without promotor) (FIG. 6).
Stable transfected Capan-1-pCMVmin-LUC-54 cells, cultivated without G418 for 4 day's, were plated at a density of 4×10^4 cells per 96 well plate [Greiner, LIA plate white, Cat. No. 655083] in 100 μl DMEM containing 10% (v/v) FBS and grown for 24 hour. Cells were starved by serum starvation for 16 hour in 8511 medium without FBS [DMEM(Cat. No. 25030-024) containing 5% L-glutamine]. […] The luminescence was measured within 15 minutes after reagent addition for maximum sensitivity.

Pax4 promoter = experiment: Cellular HTS-Pax4 screening assay (Capan-1 pKS-Pax-4-LUC luciferase reporter); type: cell-based, human; conditions: Capan-1 pKS-Pax-4-LUC clone18; compound 10 μM with Trichostatin A 0.75 μM; 30 hour
Text: To perform high throughput screening for compounds that are either directly or indirectly capable of switching on Pax4 expression, a Pax4 reporter gene assay was established. Therefore, cDNA constructs containing a luciferase reporter gene under the control of the Pax4 promoter with the complete Pax4 gene locus were introduced into the human pancreatic duct cell line CAPAN-1.
as §5, with “The Minimal CMV reporter gene construct (referred to as pCMVmin-LUC): a fire fly luciferase reporter gene (LUC) under the control of a minimal CMV promotor (56 bp) was cloned into pcDNA3.1 plasmid (without promotor) (FIG. 6).” left out
Capan-1, stably transfected with pKS-Pax-4-LUC (clone18), cultivated without G418 for 4 day's, were plated at a density of 1×10^4 cells per 96 well plate [Greiner, LIA plate white, Cat. No. 655083] in 100 μl DMEM containing 10% (v/v) FBS without G418 and grown for 24 hour. […] The luminescence was measured within 15 minutes after reagent addition for maximum sensitivity.

Pax4 [4] = experiment: Pax4 transcription in INS-1E insulinoma cells, quantitative RT-PCR; type: cell-based, rat; conditions: INS-1E cells
Text: The response of the Pax4 gene to test compounds was investigated in the rat insulinoma cell line INS-1E. INS-1E cells are known to express Pax4 and to upregulate Pax4 levels in response to the treatment with activin-A and betacellulin. In the search for novel beta cell mitogens and/or beta cell protective agents the inventors treated INS-1E cells with different test compounds.
(§6) Total RNA from 8×10^4 cells growing on 4 cm^2 surface area of a tissue culture dish was extracted using Qiagen RNAeasy kit according to the instructions of the manufacturer (Qiagen) and 2 μg was converted into cDNA. Primers for pax4, 18S RNA, and rat RNA polymerase II largest subunit (RPB1) were designed using the Primer Express 1.5 Software from Applied Biosystems and sequences can be obtained upon request. Quantitative real-time PCR was performed using Applied Biosystems SDS 7000 detection system. Amplifications from 2 independent experiments were performed in duplicate for each transcript and mean values were normalized to the mean value of the reference RNA 18S RNA.
(§7) Cells were seeded at a density of 2×10^4 cells per cm^2 6 to 8 days before the treatment with chemicals. During the growth period the medium was changed once. The cells were incubated for different periods of time with chemicals under serum-free conditions. The cells were harvested in Qiagen RNAeasy cell lysate buffer and immediately transferred to dry ice. The samples were stored at −20° C. until RNA isolation was carried out.
as §7, with “RNA easy” for “RNAeasy”, “−20 degree” for “−20° C.”

[5] = test system: RNA polymerase II largest subunit (RPB1); experiment: Expression of unrelated gene RPB1 in INS-1E cells, quantitative RT-PCR; type: cell-based, rat
Text: The response of the Pax4 gene to mitogens was investigated in the rat insulinoma cell line INS-1E. INS-1E cells are known to express Pax4 and to upregulate Pax4 levels in response to the treatment with activin-A and betacellulin (Ueda (2000), supra, Li et al. (2004) supra, Brun et al. (2004), supra). In the search for novel beta-cell mitogens the inventors treated INS-1E cells with proteins related to activin A or betacellulin. […] The Pax4 RNA expression level was normalized to this of 18S RNA. The level of the unrelated gene RNA polymerase II largest subunit (RPB1) was unaffected by activin B treatment.
as §6
INS-1E cells were cultured as described (Merglen, (2004) Endocrinology; 145: 667-678). […]

human Pax4 promoter [6] = experiment: Pax4 reporter gene assay in INS-1-cl-1.5 cells; type: cell-based, rat
Experimental: as §1, §2, §3, §4

Molecule: TGF-beta 1: Activin related protein
- Pax4 reporter response of clone (in words) (human Pax4 promoter [1]): does not effect Pax4 transcription

Molecule: O=C1Cc2c([nH]c3ccc(Br)cc23)-c2ccccc2N1 [Kenpaullone, 9-Bromo-7,12-dihydro-indolo[3,2-d][1]benzazepin-6(5H)-one]
- expression of Pax4 compared to untreated pancreatic islets (Pax4 [2]): 10-15 fold
- effect on Pax4 expression in small intestine and colon (Pax4 [3]): No effect
- induction in the counterscreen (minimal CMV promotor): 1.2 fold
- induction of luciferase activity (Pax4 promoter): 6 fold
- induction of relative Pax4 expression compared to the control (Pax4 [4]; 20 μM): 8 fold
- Pax4 gene transcription over time (in words) (Pax4 [4]; 20 μM, FIG. 1): transiently induces Pax4 gene transcription

B1: activin B: protein related to activin A (protein, UniProt P09529 293-407, looked up)
Inhibin beta B chain: GLECDGRTNLCCRQQFFIDFRLIGWNDWIIAPTGYYGNYCEGSCPAYLAGVPGSASSFHTAVVNQYRMRGLNPGTVNSCCIPTKLSTMSMLYFDDEYNIVKRDVPNMIVEECGCA
modifications: Inhibin beta B chain
- level of RNA polymerase II largest subunit (RPB1) [5]: unaffected
- increase in Pax4 levels (maximal Pax4 induction) (Pax4 [4]; 1 nM): ~7.5 fold
- stimulation of Pax4 transcription relative to activin A (in words) (Pax4 [4]; FIG. 16): almost equally potent in stimulating Pax4 transcription as activin A

B2: Activin: Activin; figures 18 and 19 name activin-A (protein, UniProt P08476 311-426, looked up)
Inhibin beta A chain: GLECDGKVNICCKKQFFVSFKDIGWNDWIIAPSGYHANYCEGECPSHIAGTSGSSLSFHSTVINHYRMRGHSPFANLKSCCVPTKLRPMSMLYYDDGQNIIKKDIQNMIVEECGCS
modifications: Inhibin beta A chain
- Pax4 reporter response of clone (in words) (human Pax4 promoter [1]): react to Activin treatment
- Pax4 reporter response of clone (in words) (human Pax4 promoter [6]): does not react to Activin stimulation
